Experimental data published in article PMC5485444 (Antibiotics, 2017).
In brackets after ≈: the same amount, converted by molar mass. Like-named read-outs stand apart in the source and are kept apart here.

Legend:
[1] = Solubility in DMSO / DMSO-d6 observed during 1H NMR; type: physicochemical; details: DMSO / DMSO-d6, NMR sample
Method: ^1H NMR was used to confirm the presence of AD in the AD-EM (Figure S1). Both EM and AD-EM were dissolved in deuterated dimethyl sulfoxide (DMSO-d6) and spectra acquired. The spectra are in agreement with the reported literature spectra, thus we looked to see changes in the spectra following the conjugation reaction. The processed spectra of each species were compared to monitor structural differences between protons from EM and AD-EM. The AD-EM spectra confirms the presence of both AD and EM, as well as hydrazone formation, indicating successful reaction. In the NMR spectra of AD-EM, AD attachment is confirmed by the presence of two multiplet peaks at approximately 1.9 ppm and from 1.6–1.8 ppm, corresponding to protons from the fused cyclohexane rings of AD. In the spectra of the AD-EM, a singlet peak, corresponding to a hydrazone, appears at 9.0 ppm. […] However, peak placement is consistent between AD-EM and EM, indicating the presence of both species in the AD-EM conjugate.
EM (approximately 40 mg) and AD-EM (approximately 40 mg) were dissolved in 500 µL of DMSO-d6, and sonication was used to promote dissolution. Samples were analyzed on a 600 MHz Varian Nuclear Magnetic Resonance Spectrometer, using 128 scans and a 45 degree pulse angle. Spectra were analyzed using MesReNova software using the residual solvent peak from DMSO-d6 as the reference.

[2] = system: S. aureus; experiment: Zone of inhibition antibacterial study with drug-loaded insoluble cyclodextrin polymer disks; type: cell-based, Staphylococcus aureus; details: approximately two weeks
Method: A zone of inhibition study against S. aureus was conducted for approximately two weeks using EM and AD-EM loaded into insoluble cyclodextrin polymer disks to evaluate whether the chemical modification altered the intrinsic antimicrobial activity of EM (Figure 4). […] It is possible that the slight decrease in antibacterial activity after 8 days in AD-EM (compared to EM) can be attributed to the presence of both species in the final AD-EM composition.
Synthesis of insoluble cyclodextrin polymer disks was carried out according to a previously published protocol by Thatiparti et al.. Briefly, 1 g cyclodextrin (CycloLab, Budapest, Hungary) was dissolved in 4 mL dimethylformamide (DMF) and stirred. The solution was cross-linked with hexamethylene diisocyanate (HDI; Sigma Aldrich, St. Louis, MO, USA) in a molar ratio of 1:0.16 (glucose residue: HDI). The solution was cured at 70 °C for 45 min and punched into 8 mm disks. Disks were washed to removed unreacted products over several days in 100% DMF, 50:50 DMF:water, and 100% water before use. […]
The antibacterial activity of EM and AD-EM loaded insoluble cyclodextrin polymer disks was evaluated against S. aureus (GFP labeled S. aureus kindly provided by Ed Greenfield, Case Western Reserve University, Cleveland, OH, USA) according to the protocol outlined by Thatiparti et al.. […]

[3] = system: S. aureus biofilms; experiment: Bacterial biofilm penetration study (colonies remaining in mature biofilm); type: cell-based, Staphylococcus aureus; details: for % Control Colonies Remaining: 1.25 mg/mL, mature (72 h) biofilm, vs 90% PBS/10% DMSO control; for Original colonies in the biofilm eradicated: 1 h exposure; for Original colonies killed: 7 h exposure; for Additional killing compared to the 7 h time point: 24 h exposure
Method: The ability to penetrate through the biofilm is related to the number of bacteria remaining in the biofilm after exposure to a drug compared to the control condition (90% PBS/10% DMSO). The control condition was set-up in such a way that the biofilm coated cyclodextrin polymer was placed in a solution under the same conditions used to make the drug-containing solutions. The colonies remaining in the biofilms after 1, 7, and 24 h after being treated with AD-EM, EM, or the control solution are reported in Table 2, where the remaining colonies from drug-treated biofilms are compared to the number of colonies in a control solution. After only 1 h of exposure to the drug (AD-EM or EM), nearly 30% of the original colonies in the biofilm were eradicated, and after 7 h of drug (AD-EM or EM) exposure >85% of the original colonies were killed. […] We hypothesize that this could be due to presence of planktonic bacteria naturally resistant to antibiotic effect, as well as the development of drug-resistant bacteria that are unable to be fully eradicated even after extended periods of exposure time to the drug. […] High variability in the studies reflects both the inconsistent nature of the biofilm as well as difficulty recovering bacteria to make accurate counts.
5 mm insoluble cyclodextrin polymer disks were placed in 3 mL solutions of 2× Trypticase soy broth with 30 μL of freshly cultured GFP-labeled S. aureus. Solutions were incubated at 37 °C for 72 h to form a mature biofilm. Each condition was set-up in triplicate. Following incubation, polymer disks were removed from the bacterial culture, excess broth removed, and placed in a 1.25 mg/mL drug solution of either EM or AD-EM dissolved in PBS with 10% DMSO. As a control, biofilm coated disks were also placed in a solution of just PBS and 10% DMSO. Each solution was placed in a laboratory shaker at 37 °C for either 1, 7, or 24 h. After this time, disks were removed from the drug solution, dried off, and placed in 4 mL of sterile Trypticase soy broth and homogenized for 30 s with an Omni TH homogenizer. Then, 70 μL of each solution was spread in duplicate on Trypticase soy agar plates and incubated overnight. Bacterial colonies were then counted and averaged using ImageJ software. Bacterial eradication was calculated as the percentage of colonies remaining in drug treated samples after different time points compared to the control colonies at that time point.

[4] = Solubility study in aqueous buffers and organic solvents; type: physicochemical
Method: The solubility of AD-EM compared to EM was evaluated in several different aqueous buffers (i.e., PBS, Water, Acetate pH 5.0) and polar solvents (i.e., methanol, ethyl acetate, acetone). The solubility study presented in Table 1 further verifies that modified AD-EM is more hydrophobic than EM due to the addition of the hydrophobic AD group. […] The increased hydrophobicity of AD-EM is desirable to enhance its ability to bind to tissue, thereby increasing its tissue residence time and therapeutic activity.
Small samples of both EM and AD-EM (1–3 mg samples for aqueous solvents (water, PBS (pH 7.4), and acetate buffer (pH 5.0)); 10 mg samples for methanol, ethyl acetate, and acetone) were placed in individual vials. Each solvent was gradually added to either the EM or AD-EM samples in 50–100 µL increments until the drug sample was completely dissolved and the solution was homogeneous. Three trials were completed for each drug in each solvent and the results are reported as an average of these three trials. The solubility limit of each drug was determined to be the minimum amount of volume of each solvent where the drug was completely soluble.

[5] = Acidic stability / acidic conversion absorbance spectral scan; type: physicochemical; details: for Acidic conversion over several hours (absorbance pattern, words): pH 5.0 vs neutral vs acidic later neutralized, t = several hours
Method: The PBS solution was diluted to a concentration of 70 μM and concentrated sulfuric acid ([…]) was added to the solution in a volume equal to that of the total volume of the initial 70 µM solution to elicit a color change detectable with absorbance spectroscopy. Two separate solutions were initially created with the acetate buffer. One solution was diluted to 70 μM and allowed to sit for several hours at room temperature. The other acetate solution was diluted to a slightly higher concentration, sat for 1 h at room temperature, was neutralized with sodium hydroxide (0.1 N) (such that the concentration of the solution was 70 µM), and sat for several more hours at room temperature. Both acetate solutions were treated with equal volumes of sulfuric acid to elicit a color change.

[6] = system: S. aureus biofilms; experiment: Bacterial biofilm penetration study (colonies remaining in mature biofilm); type: cell-based, Staphylococcus aureus; details: 48 and 72 h exposure, data not shown
[7] = aqueous buffer, thermodynamic from solid, Acetate buffer, pH 5.0, n = 3, read-out: Relative solubility in acetate buffer
[8] = aqueous buffer, thermodynamic from solid, Phosphate Buffered Saline (PBS), pH 7.4, n = 3, read-out: Relative solubility in PBS
[9] = organic solvent or mixture, thermodynamic from solid, Acetone, n = 3, read-out: Relative solubility in acetone
[10] = organic solvent or mixture, thermodynamic from solid, Ethyl Acetate, n = 3, read-out: Relative solubility in ethyl acetate
[11] = organic solvent or mixture, thermodynamic from solid, Methanol, n = 3, read-out: Relative solubility in methanol
[12] = thermodynamic from solid, Water, n = 3, read-out: Relative solubility in water

## NNC(=O)C12CC3CC(CC(C3)C1)C2 [AD, adamantane-1-carbohydrazide]
[1]
  Solubility in DMSO: completely insoluble

## CC[C@H]1OC(=O)[C@H](C)[C@@H](OC2C[C@@](C)(OC)[C@@H](O)[C@H](C)O2)[C@H](C)[C@@H](OC2O[C@H](C)C[C@H](N(C)C)[C@H]2O)[C@](C)(O)C[C@@H](C)/C(=N\NC(=O)C23CC4CC(CC(C4)C2)C3)[C@H](C)[C@@H](O)[C@]1(C)O (stereo partly drawn) [AD-EM, adamantane-modified erythromycin]
[2]
  Zone of inhibition activity: comparable activity
[1]
  Solubility in DMSO: slightly insoluble
[3]; 1 h drug incubation
  % Control Colonies Remaining: 62.7% ± 22.1%
[3]
  Original colonies in the biofilm eradicated: ~30%
  Original colonies killed: > 85%
  Additional killing compared to the 7 h time point: ~ 2%
[3]; 7 h drug incubation
  % Control Colonies Remaining: 14.8% ± 13.7%
[3]; 24 h drug incubation
  % Control Colonies Remaining: 11.7% ± 7.9%
[4]; [7]
  solubility: 1390 ± 40 µg/mL (≈ 1.53 mM)
[4]; [8]
  solubility: 340 ± 10 µg/mL (≈ 0.374 mM)
[4]; [9]
  solubility: 37500 µg/mL (≈ 41.2 mM)
[4]; [10]
  solubility: > 40000 µg/mL
[4]; [11]
  solubility: 7300 ± 200 µg/mL (≈ 8.02 mM)
[4]; several polar solvents, comparable to EM, read-out: Solubility in several polar solvents
  solubility: ~40000 µg/mL (≈ 43.9 mM)
[4]; [12]
  solubility: 330 ± 30 µg/mL (≈ 0.363 mM)
[5]
  Acidic conversion over several hours (absorbance pattern, words): no distinguishable differences
[5]; pH 5.0 vs neutral, t = several days
  Acidic conversion over several days (absorbance signal, words): lower absorbance signal than in neutral conditions

## CC[C@H]1OC(=O)[C@H](C)[C@@H](O[C@H]2C[C@@](C)(OC)[C@@H](O)[C@H](C)O2)[C@H](C)[C@@H](O[C@@H]2O[C@H](C)C[C@H](N(C)C)[C@H]2O)[C@](C)(O)C[C@@H](C)C(=O)[C@H](C)[C@@H](O)[C@]1(C)O [EM, Erythromycin]
[2]
  Zone of inhibition activity: comparable activity
[3]; 1 h drug incubation
  % Control Colonies Remaining: 71.6% ± 40.2%
[3]
  Original colonies in the biofilm eradicated: ~30%
  Original colonies killed: > 85%
  Additional killing compared to the 7 h time point: ~ 2%
[3]; 7 h drug incubation
  % Control Colonies Remaining: 10.5% ± 6.8%
[3]; 24 h drug incubation
  % Control Colonies Remaining: 8.3% ± 6.6%
[4]; [7]
  solubility: 15000 µg/mL (≈ 20.4 mM)
[4]; [8]
  solubility: 1600 ± 400 µg/mL (≈ 2.18 mM)
[4]; [9]
  solubility: > 40000 µg/mL
[4]; [10]
  solubility: > 40000 µg/mL
[4]; [11]
  solubility: > 40000 µg/mL
[4]; [12]
  solubility: 1500 ± 200 µg/mL (≈ 2.04 mM)
[6]
  Colonies remaining after extended exposure: approximately the same number of colonies remained
[5]; acetate pH 5.0, several hours, after 27 N sulfuric acid, 35 μM final
  Absorbance signal in acidic solution: 0.17
[5]; acetate pH 5.0 then neutralized with NaOH, several hours
  Absorbance signal, acidic solution later neutralized: 0.22
[5]; neutral PBS, after 27 N sulfuric acid, 35 μM final
  Absorbance signal in neutral solution: 0.22
[5]
  Acidic conversion over several hours (absorbance pattern, words): noticeable acidic conversion
